# Measured values taken from ChEMBL document CHEMBL4219259, “Molecular Determinants Conferring the Stoichiometric-Dependent Activity of α-Conotoxins at the Human α9α10 Nicotinic Acetylcholine Receptor Subtype” (J Med Chem, 2018).
# Peptide text beside a SMILES is read from it.
# Key:
# [1] = biological target: T1, Neuronal acetylcholine receptor; alpha9/alpha10 (Homo sapiens, UniProt Q9GZZ6+Q9UGM1); experiment: Inhibition of human alpha9/alpha10 nACHR (3:1) expressed in Xenopus laevis oocyte assessed as inhibition of ACh induced channel current measured for 2 to 5 days at -80 mV holding potential by two electrode voltage clamp method
# T1 sequence (Q9UGM1 whole entry): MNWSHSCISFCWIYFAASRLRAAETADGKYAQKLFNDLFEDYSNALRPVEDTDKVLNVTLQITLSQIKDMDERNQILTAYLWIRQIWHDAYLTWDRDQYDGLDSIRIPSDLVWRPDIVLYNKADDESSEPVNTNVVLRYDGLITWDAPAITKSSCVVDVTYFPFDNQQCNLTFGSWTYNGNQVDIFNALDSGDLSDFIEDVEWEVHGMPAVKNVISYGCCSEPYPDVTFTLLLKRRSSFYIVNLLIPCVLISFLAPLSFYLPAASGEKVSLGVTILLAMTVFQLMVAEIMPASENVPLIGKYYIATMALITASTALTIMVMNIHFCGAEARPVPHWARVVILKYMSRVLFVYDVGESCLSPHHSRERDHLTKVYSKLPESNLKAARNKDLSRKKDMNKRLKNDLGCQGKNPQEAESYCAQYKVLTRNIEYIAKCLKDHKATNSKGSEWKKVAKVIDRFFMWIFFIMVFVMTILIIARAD
# T1 sequence (Q9GZZ6 whole entry): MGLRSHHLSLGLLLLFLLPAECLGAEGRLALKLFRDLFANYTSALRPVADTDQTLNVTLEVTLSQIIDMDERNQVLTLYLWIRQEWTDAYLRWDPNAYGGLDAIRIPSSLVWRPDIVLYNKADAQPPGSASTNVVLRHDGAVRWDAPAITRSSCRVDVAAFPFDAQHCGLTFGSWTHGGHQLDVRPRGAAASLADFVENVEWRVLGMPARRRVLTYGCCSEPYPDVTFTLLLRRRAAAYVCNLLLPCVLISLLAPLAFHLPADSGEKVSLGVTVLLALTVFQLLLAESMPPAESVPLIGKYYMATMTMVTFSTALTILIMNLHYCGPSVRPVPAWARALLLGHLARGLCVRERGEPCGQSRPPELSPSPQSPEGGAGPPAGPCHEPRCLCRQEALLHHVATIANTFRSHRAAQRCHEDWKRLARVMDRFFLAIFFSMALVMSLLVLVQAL
# [2] = biological target: T1, Neuronal acetylcholine receptor; alpha9/alpha10; experiment: Inhibition of human alpha9/alpha10 nACHR (1:3) expressed in Xenopus laevis oocyte assessed as inhibition of ACh induced channel current measured for 2 to 5 days at -80 mV holding potential by two electrode voltage clamp method
# [3] = biological target: T2, Neuronal acetylcholine receptor; alpha9/alpha10 (Homo sapiens) (UniProt Q9UGM1+Q9GZZ6); experiment: Inhibition of human alpha9 N154G mutant/alpha10 nACHR (1:3) expressed in Xenopus laevis oocyte assessed as inhibition of ACh induced channel current at 1 uM measured for 2 to 5 days at -80 mV holding potential by two electrode voltage clamp method
# [4] = biological target: T2, Neuronal acetylcholine receptor; alpha9/alpha10 (Homo sapiens); experiment: Inhibition of human alpha9/alpha10 nACHR (4:1) expressed in Xenopus laevis oocyte assessed as inhibition of ACh induced channel current at 1 uM measured for 2 to 5 days at -80 mV holding potential by two electrode voltage clamp method
# [5] = biological target: T3, Neuronal acetylcholine receptor; alpha9/alpha10 (Homo sapiens, UniProt Q9GZZ6+Q9UGM1, N154G); experiment: Inhibition of human alpha9 N154G mutant/alpha10 nACHR (1:3) expressed in Xenopus laevis oocyte assessed as inhibition of ACh induced channel current measured for 2 to 5 days at -80 mV holding potential by two electrode voltage clamp method
# T3 sequence (Q9GZZ6 whole entry, looked up, stated change not applied): as the sequence (Q9GZZ6 whole entry) above
# T3 sequence (Q9UGM1 whole entry, looked up, stated change not applied): as the sequence (Q9UGM1 whole entry) above
# [6] = biological target: T3, Neuronal acetylcholine receptor; alpha9/alpha10; experiment: Inhibition of human alpha9 N154G mutant/alpha10 nACHR (3:1) expressed in Xenopus laevis oocyte assessed as inhibition of ACh induced channel current measured for 2 to 5 days at -80 mV holding potential by two electrode voltage clamp method
# Homo sapiens [7] = species on record: Homo sapiens; experiment: Ratio of IC50 for human alpha9/alpha10 nACHR (1:3) to IC50 for human alpha9 N154G mutant/alpha10 nACHR (1:3)
# [8] = biological target: T2, Neuronal acetylcholine receptor; alpha9/alpha10 (Homo sapiens); experiment: Inhibition of human alpha9/alpha10 nACHR (2:3) expressed in Xenopus laevis oocyte assessed as inhibition of ACh induced channel current at 1 uM measured for 2 to 5 days at -80 mV holding potential by two electrode voltage clamp method
# [9] = biological target: T2, Neuronal acetylcholine receptor; alpha9/alpha10 (Homo sapiens); experiment: Inhibition of human alpha9/alpha10 nACHR (3:2) expressed in Xenopus laevis oocyte assessed as inhibition of ACh induced channel current at 1 uM measured for 2 to 5 days at -80 mV holding potential by two electrode voltage clamp method
# Homo sapiens [10] = species on record: Homo sapiens; experiment: Ratio of IC50 for human alpha9/alpha10 nACHR (3:1) to IC50 for human alpha9 N154G mutant/alpha10 nACHR (3:1)
# [11] = biological target: T1, Neuronal acetylcholine receptor; alpha9/alpha10; experiment: Inhibition of human alpha9/alpha10 nACHR (1:1) expressed in Xenopus laevis oocyte assessed as inhibition of ACh induced channel current measured for 2 to 5 days at -80 mV holding potential by two electrode voltage clamp method
# [12] = biological target: T2, Neuronal acetylcholine receptor; alpha9/alpha10 (Homo sapiens); experiment: Inhibition of human alpha9 N154G mutant/alpha10 nACHR (3:1) expressed in Xenopus laevis oocyte assessed as inhibition of ACh induced channel current at 1 uM measured for 2 to 5 days at -80 mV holding potential by two electrode voltage clamp method
# [13] = biological target: Neuronal acetylcholine receptor; alpha9/alpha10 (Homo sapiens, UniProt Q9GZZ6+Q9UGM1, G154N); experiment: Inhibition of human alpha9/alpha10 G154N mutant nACHR (1:3) expressed in Xenopus laevis oocyte assessed as inhibition of ACh induced channel current measured for 2 to 5 days at -80 mV holding potential by two electrode voltage clamp method
# Chain of Neuronal acetylcholine receptor; alpha9/alpha10 (Homo sapiens, UniProt Q9GZZ6+Q9UGM1, G154N) (Q9GZZ6 whole entry, looked up, stated change not applied): as the sequence (Q9GZZ6 whole entry) above
# Chain of Neuronal acetylcholine receptor; alpha9/alpha10 (Homo sapiens, UniProt Q9GZZ6+Q9UGM1, G154N) (Q9UGM1 whole entry, looked up, stated change not applied): as the sequence (Q9UGM1 whole entry) above
SMILES,IC50 [1] [µM],IC50 [2] [µM],inhibition [3] [%],inhibition [4] [%],IC50 [5] [µM],IC50 [6] [µM],Ratio IC50 (Homo sapiens [7]),inhibition [8] [%],inhibition [9] [%],Ratio IC50 (Homo sapiens [10]),IC50 [11] [µM],inhibition [12] [%],IC50 [13] [µM]
"CC[C@H](C)[C@@H]1NC(=O)[C@H](CCC(=O)O)NC(=O)[C@@H]2CCCN2C(=O)[C@H](Cc2ncc[nH]2)NC(=O)[C@H](CC(=O)O)NC(=O)[C@H](Cc2ccc(O)cc2)NC(=O)[C@H](CC(N)=O)NC(=O)[C@@H]2CSSC[C@H](NC(=O)CN)C(=O)N[C@@H](CSSC[C@@H](C(N)=O)NC1=O)C(=O)N[C@@H](CO)C(=O)N[C@@H](CC(=O)O)C(=O)N1CCC[C@H]1C(=O)N[C@@H](CCCNC(=N)N)C(=O)N2 (HELM PEPTIDE1{G.C.C.S.D.P.R.C.N.Y.D.[O=C([C@H](Cc1ncc[nH]1)N[*:1])[*:2]].P.E.I.C.[am]}$PEPTIDE1,PEPTIDE1,2:R3-8:R3|PEPTIDE1,PEPTIDE1,3:R3-16:R3$$$V2.0)",0.75,3.57,19.5,65.8,11.3,17,3,25.5,65.8,23,1,21.8,0.75
"N=C(N)NCCC[C@@H]1NC(=O)[C@H](Cc2ccc(O)cc2)NC(=O)[C@H](CCCNC(=N)N)NC(=O)[C@@H]2CSSC[C@H](NC(=O)CN)C(=O)N[C@@H](CSSC[C@@H](C(N)=O)NC1=O)C(=O)N[C@@H](CO)C(=O)N[C@@H](CC(=O)O)C(=O)N1CCC[C@H]1C(=O)N[C@@H](CCCNC(=N)N)C(=O)N2 (HELM PEPTIDE1{G.C.C.S.D.P.R.C.R.Y.R.C.[am]}$PEPTIDE1,PEPTIDE1,2:R3-8:R3|PEPTIDE1,PEPTIDE1,3:R3-12:R3$$$V2.0)",–,–,–,–,–,–,–,–,–,–,249,–,–
"CC[C@H](C)[C@@H]1NC(=O)[C@H](CC(N)=O)NC(=O)[C@@H]2CCCN2C(=O)[C@H](Cc2ncc[nH]2)NC(=O)[C@H](CC(=O)O)NC(=O)[C@H](Cc2ccc(O)cc2)NC(=O)[C@H](CC(N)=O)NC(=O)[C@@H]2CSSC[C@H](NC(=O)CN)C(=O)N[C@@H](CSSC[C@@H](C(N)=O)NC1=O)C(=O)N[C@@H](CO)C(=O)N[C@@H](CC(=O)O)C(=O)N1CCC[C@H]1C(=O)N[C@@H](CCCNC(=N)N)C(=O)N2 (HELM PEPTIDE1{G.C.C.S.D.P.R.C.N.Y.D.[O=C([C@H](Cc1ncc[nH]1)N[*:1])[*:2]].P.N.I.C.[am]}$PEPTIDE1,PEPTIDE1,2:R3-8:R3|PEPTIDE1,PEPTIDE1,3:R3-16:R3$$$V2.0)",10.8,17.5,–,–,10.2,8.59,–,–,–,–,–,–,–
"CC(C)[C@@H]1NC(=O)[C@H](CO)NC(=O)[C@@H]2CSSC[C@H](NC(=O)CN)C(=O)N[C@@H](CSSC[C@@H](C(N)=O)NC(=O)[C@H](CCCCN)NC(=O)[C@H](CC(N)=O)NC(=O)[C@@H]3CCCN3C(=O)[C@H](Cc3ncc[nH]3)NC(=O)[C@H](CC(=O)O)NC1=O)C(=O)N[C@@H](CO)C(=O)N[C@@H](CC(=O)O)C(=O)N1CCC[C@H]1C(=O)N[C@@H](CCCNC(=N)N)C(=O)N2 (HELM PEPTIDE1{G.C.C.S.D.P.R.C.S.V.D.[O=C([C@H](Cc1ncc[nH]1)N[*:1])[*:2]].P.N.K.C.[am]}$PEPTIDE1,PEPTIDE1,2:R3-8:R3|PEPTIDE1,PEPTIDE1,3:R3-16:R3$$$V2.0)",9.3,13.2,–,–,13,15.2,–,–,–,–,–,–,–
